Here are results for 17 compounds from US7166597B2, “Fused pyrazole derivatives being protein kinase inhibitors” (Glaxo Group Limited, priority 2000, dated 2007).

Structures are written as SMILES. pIC50: −log10 of the molar value. Where two headings read alike, the source gives them in different places.

The target in one assay is T1, p38 kinase (Homo sapiens, UniProt Q16539).
T1 construct: GST (N); made in house; host or cells: E. coli
The experiment in a line: p38 Kinase Assay. It is filed as biochemical. The protocol: The peptide substrate used in the p38 assay was biotin-IPTSPITTTYFFFRRR-amide. The p38 and MEK6 proteins were purified to homogeneity from E. coli expression systems. The fusion proteins were tagged at the N-terminus with Glutathione-S-Transferase (GST). The maximum activation was achieved by incubating 20 uL of a reaction mixture of 30 nM MEK6 protein and 120 nM p38 protein in the presence of 1.5 uM peptide and 10 mM Mg (CH3CO2)2 in 100 mM HEPES7 pH 7.5, added to 15 uL of a mixture of 1.5 uM ATP with 0.08 uCi [g-^33P]ATP, with or without 15 uL of inhibitor in 6% DMSO. The controls were reactions in the presence (negative controls) or absence (positive controls) of 50 mM EDTA. Reactions were allowed to proceed for 60 min at room temperature and quenched with addition of 50 uL of 250 mM EDTA and mixed with 150 uL of Streptavidin SPA beads (Amersham) to 0.5 mg/reaction. The Dynatech Microfluor white U-bottom plates were sealed and the beads were allowed to settle overnight. The plates were counted in a Packard TopCount for 60 seconds. IC50 values were obtained by fitting raw data to % I=100*(1−(I−C2)/(C1−C2)), where I was […], C1 was positive control, and C2 was negative control.

In assay [1] the test system is TNF release from human peripheral blood mononuclear cells (PBMNC). Briefly: Cell Based Assay for Cytokines Production in PBMNC (TNF release after LPS). As to conditions: PBMC, read-out: TNF/PBMNC (inhibition of TNF release from human PBMNC following stimulation with LPS, IC50). The protocol: Cell Based Assay for Cytokines Production in PBMNC
Human peripheral blood mononuclear cells were isolated from heparinized blood by LSM (Organon Teknika) from volunteer donors. Purified human peripheral blood mononuclear cells were then suspended at a concentration of 2×10^6 cells/ml in RPMI 1640 medium supplemented with 10% heat-inactivated FBS and 1% antibiotics. Aliquots of 100 μl (2×10^5 cells) were added to 96-well microliter plates. Test compounds at […] dose ranges (final-DMSO concentration in culture medium was 0.1%) were then added to the cells for 10–15 minutes before the addition of lipopolysaccharide (1 ng/ml). After incubation at 37° C. in a 5% CO2 incubator for 18–20 h, cell free supernatants were collected by centrifugation at 800 g. The supernatant was then assayed for the amount of TNFα and IL-1β by using Quantikine immunoassay kits developed by R&D Systems (Minneapolis, Minn.).

Assay [2] concerns serum TNFα elevation in mice treated with lipopolysaccharide (LPS). Briefly: Murine LPS-Stimulated Serum TNF Inhibition. It is filed as in vivo. Conditions: Mus musculus, 1.5 h, dose 30 mpk, read-out: % inh. (dose): % inhibition of murine TNF production in mice following an LPS challenge. The protocol: Murine LPS—Stimulated Serum TNF Inhibition Protocol
The potency of compounds of the invention as inhibitors of serum TNFα elevation in mice treated with lipopolysaccharide (LPS) was determined as follows; a) for subcutaneous (s.c.) administration, test compound was dissolved in DMSO and added to a mixture of 0.9% sodium chloride solution and 30% Trappsol HPB-20 (Cyclodextrin Technology Development Inc., Gainesville, Fla. USA) for a final DMSO concentration of 1%. The dosing solution was sonicated briefly and 0.2 mL was injected subcutaneously 10 min prior to LPS injection; b) for per oral (p.o.) administration, test compounds were formulated in 0.2 mL of PBS and 0.1% Tween 80 and given orally via gavage 10 min prior to LPS administration.
C3/hen female mice were injected intraperitoneally with 200 μg/kg LPS (Escherichia coil, Serotype 0111:B4, Sigma Chemical Co, St. Louis, Mo.) in PBS and sacrificed 90 min later by CO2 asphyxiation. Blood was immediately taken from the caudal vena cava and plasma prepared and frozen at −80° C. Plasma concentrations of TNF were measured by ELISA (Genzyme Co., Cambridge Mass.).

Assay [3] concerns the target T2, JNK3 kinase (Jnk-3alpha-2) (Homo sapiens, UniProt P53779).
T2 construct: Jnk-3alpha-2 (as a truncated construct, residues 39 to 224) was expressed in E. coli as a GST fusion protein; Following purification the GST portion was removed by thrombin cleavage; fused on or other part: An N-terminal GST tag was used for expression and removed by thrombin cleavage before the assay
Briefly: JNK3 Kinase Assay. It is filed as biochemical. Conditions: Table 9; read-out: JNK3 IC50. The protocol:
JNK3 Kinase Assay Jnk-3alpha-2 (as a truncated construct, residues 39 to 224) was expressed in E. coli as a GST fusion protein. Following purification the GST portion was removed by thrombin cleavage. The enzyme was stored at −80° C. Substrate c-Jun was expressed as a GST fusion protein including a signal peptide (biotinylation site) in E. coli. Following purification the substrate was biotinylated on a specific lysine in the signal peptide using biotin ligase. Prior to assay Jnk-3 was pre-activated by incubation with MgATP. The enzyme (10 nM) was screened in 40 mM HEPES (pH 7.4), 150 mM NaCl, 20 mM glycerophosphate, 1 mM DTT, 0.2 mM vanadate, 200 nM biotin-c-Jun, 5 mM MgCl2 and 10 uM ATP. Inhibitors were added over a conc range of from 0 to 10 uM in DMSO (fc 3%). The reaction was stopped by the addition of 25 mM EDTA. Phospho-c-Jun was detected using homogeneous time resolved fluorescence (HTRF) with a Eu-labelled antiphosphoserine (Serine 73) and streptavidin APC.

Where [4] appears, read: Table 8, compounds wherein Z is N, read-out: p38 kinase (inhibition of p38 kinase, IC50).
Setting [5] is: Table 7, compounds wherein Z is CH, read-out: P38 kinase (inhibition of p38 kinase, IC50).
Where [6] appears, read: Table 9, p38 assays using Assay II, read-out: p38 IC50.

T2 sequence (P53779 39-402 limits assumed): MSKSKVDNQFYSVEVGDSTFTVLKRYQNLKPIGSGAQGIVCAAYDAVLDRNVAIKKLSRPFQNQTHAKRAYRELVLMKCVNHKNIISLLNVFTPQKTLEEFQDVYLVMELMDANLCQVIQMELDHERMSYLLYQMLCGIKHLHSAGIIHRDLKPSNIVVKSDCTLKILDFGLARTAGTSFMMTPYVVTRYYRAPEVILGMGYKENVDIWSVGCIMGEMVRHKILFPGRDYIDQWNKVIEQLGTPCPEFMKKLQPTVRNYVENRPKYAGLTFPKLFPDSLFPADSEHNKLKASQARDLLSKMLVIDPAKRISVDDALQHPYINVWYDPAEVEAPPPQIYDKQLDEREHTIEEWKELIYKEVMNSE
T1 sequence (Q16539 whole entry): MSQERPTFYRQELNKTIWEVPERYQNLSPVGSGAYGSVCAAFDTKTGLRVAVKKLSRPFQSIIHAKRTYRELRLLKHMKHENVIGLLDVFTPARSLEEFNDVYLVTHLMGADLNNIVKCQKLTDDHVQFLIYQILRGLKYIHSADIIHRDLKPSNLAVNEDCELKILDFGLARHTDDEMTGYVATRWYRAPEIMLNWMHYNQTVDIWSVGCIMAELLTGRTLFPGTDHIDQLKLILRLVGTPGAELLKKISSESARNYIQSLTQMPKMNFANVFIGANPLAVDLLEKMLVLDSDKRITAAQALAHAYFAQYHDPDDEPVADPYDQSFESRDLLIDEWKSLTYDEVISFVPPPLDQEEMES

With `Nc1nccc(-c2c(-c3ccc(F)cc3)nn3ccccc23)n1` [Example 64, 4-[2-(4-Fluorophenyl)pyrazolo[1,5-a]pyridin-3-yl]-2-pyrimidinamine], the pIC50 was above 6.30 at p38 kinase (setting [4]) and above 6.30 in assay [1] (Table 8, LPS stimulation). For the same compound, the inhibition in vivo at 30 mg/kg in assay [2] (Table 8, LPS challenge) came out at 62%.
Consider `Fc1ccc(-c2nn3ccccc3c2-c2ccnc(NCCc3cnc[nH]3)n2)cc1` [Example 80, 4-[2-(4-Fluorophenyl)pyrazolo[1,5-a]pyridin-3-yl]-N-[2-(1H-imidazol-5-yl)ethyl]-2-pyrimidinamine], for which the pIC50 on p38 kinase (setting [4]) was above 6.30; in assay [1] (Table 8, LPS stimulation), above 6.30.
For `Fc1ccc(-c2nn3ccccc3c2-c2ccnc(NCc3ccc(Cl)cc3)c2)cc1` [Example 31, N-(4-Chlorobenzyl)-4-[2-(4-fluorophenyl)pyrazolo[1,5-a]pyridin-3-yl]-2-pyridinamine], the pIC50 in assay [1] (Table 7, LPS stimulation) was above 6.30. Also, in assay [2] (Table 7, LPS challenge), the inhibition in vivo at 30 mg/kg came to 42%.
As for `COc1ccn2nc(-c3ccc(F)cc3)c(-c3ccncc3)c2c1` [Example 5, 2-(4-Fluorophenyl)-5-methoxy-3-(4-pyridinyl)pyrazolo[1,5-a]pyridine], the pIC50 on p38 kinase (setting [5]) is 5.30 to 6.30; in assay [1] (Table 7, LPS stimulation), 5.30 to 6.30. The inhibition in vivo at 30 mg/kg in assay [2] (Table 7, LPS challenge) is 11%.
Consider `CCCCNc1nccc(-c2c(-c3ccc(F)cc3)nn3ccccc23)n1` [Example 60, N-Butyl-4-[2-(4-fluorophenyl)pyrazolo[1,5-a]pyridin-3-yl]-2-pyrimidin-amine], for which the pIC50 is above 6.30 at p38 kinase (setting [4]) and above 6.30 in assay [1] (Table 8, LPS stimulation). For the same compound, in assay [2] (Table 8, LPS challenge), the inhibition in vivo at 30 mg/kg is 88%.
In the case of `CC(C)Nc1nccc(-c2c(-c3ccc(F)cc3)nn3cc(C(F)(F)F)ccc23)n1` [Example 69, 4-[2-(4-Fluorophenyl)-6-trifluoromethylpyrazolo[1,5-a]pyridin-3-yl]-N-(2-propyl)-2-pyrimidinamine], the pIC50 on p38 kinase (setting [4]) was above 6.30; in assay [1] (Table 8, LPS stimulation), above 6.30. In addition, the inhibition in vivo at 30 mg/kg in assay [2] (Table 8, LPS challenge) is 45%.
Regarding `CN(C)CCCNc1nccc(-c2c(-c3ccc(F)cc3)nn3cc(C(F)(F)F)ccc23)n1` [Example 87, N-[3-(dimethylamino)propyl]-N-[4-{2-(4-fluorophenyl)-6-(trifluoromethyl)pyrazolo[1,5-a]pyridin-3-yl}pyrimidin-2-yl]amine], the pIC50 on p38 kinase (setting [6]) was 6.00 to 7.00; in assay [3], 5.00 to 6.00.
In the same order, the values of `CN1CCN(CCCNc2nccc(-c3c(-c4ccc(F)cc4)nn4cc(C(F)(F)F)ccc34)n2)CC1` [Example 124, N-{4-[2-(4-fluorophenyl)-6-(trifluoromethyl)pyrazolo[1,5-a]pyridin-3-yl]pyrimidin-2-yl}-N-[3-(4-methylpiperazin-1-yl)propyl]amine] are 7.00 to 8.00 and 6.00 to 7.00.
Take `Fc1ccc(-c2nn3cc(C(F)(F)F)ccc3c2-c2ccncc2)cc1` [Example 23, 2-(4-Fluorophenyl)-3-(4-pyridinyl)-6-(trifluoromethyl)pyrazolo[1,5-a]pyridine]: the pIC50 on p38 kinase (setting [5]) was above 6.30; in assay [1] (Table 7, LPS stimulation), above 6.30.
Take `CCCN(CCC)CCNc1nccc(-c2c(-c3cccc(Cl)c3)nn3cc(C(F)(F)F)ccc23)n1` [Example 99, N-{4-[2-(3-chlorophenyl)-6-(trifluoromethyl)pyrazolo[1,5-a]pyridin-3-yl]pyrimidin-2-yl}-N-[2-(dipropylamino)ethyl]amine]: the results for the pIC50 (at p38 kinase (setting [6]); in assay [3]) were 6.00 to 7.00 and 5.00 to 6.00, respectively.
For the compound `CN(C)CCCNc1nccc(-c2c(-c3ccc(C(F)(F)F)cc3)nn3cc(C(F)(F)F)ccc23)n1` [Example 88, N-[3-(dimethylamino)propyl]-N-[4-{6-(trifluoromethyl)-2-[4-(trifluoromethyl)phenyl]pyrazolo[1,5-a]pyridin-3-yl}pyrimidin-2-yl]amine], the pIC50 (on p38 kinase (setting [6]); in assay [3]) was 5.00 to 6.00 each time.
As for `CC(C)N(CCNc1nccc(-c2c(-c3ccc(F)c(Cl)c3)nn3cc(C(F)(F)F)ccc23)n1)C(C)C` [Example 100, N-{4-[2-(3-chloro-4-fluorophenyl)-6-(trifluoromethyl)pyrazolo-[1,5-a]pyridin-3-yl]pyrimidin-2-yl}-N-[2-(diisopropylamino)ethyl]amine], the pIC50 at p38 kinase (setting [6]) is 6.00 to 7.00; in assay [3], 5.00 to 6.00.
In the same order, the values of `FC(F)(F)c1ccc(-c2nn3cc(C(F)(F)F)ccc3c2-c2ccnc(NCCCN3CCCCC3)n2)cc1` [Example 112, N-(3-piperidin-1-ylpropyl)-N-(4-{6-(trifluoromethyl)-2-[4-(trifluoromethyl)phenyl]pyrazolo[1,5-a]pyridin-3-yl}pyrimidin-2-yl)amine] are 5.00 to 6.00 and 5.00 to 6.00.
In the case of `CSc1nccc(-c2c(-c3ccc(F)cc3)nn3ccccc23)n1` [Example 57, 2-(4-Fluorophenyl)-3-(4-(2-methylthio)pyrimidinyl)pyrazolo[1,5-a]-pyridine], the pIC50 was above 6.30 on p38 kinase (setting [4]) and above 6.30 in assay [1] (Table 8, LPS stimulation). In addition, the inhibition in vivo at 30 mg/kg in assay [2] (Table 8, LPS challenge) is 56%.
In the case of `FC(F)(F)c1ccc2c(-c3ccnc(NCCN4CCCCC4)n3)c(-c3cccc(Cl)c3)nn2c1` [Example 110, N-{4-[2-(3-chlorophenyl)-6-(trifluoromethyl)pyrazolo[1,5-a]pyridin-3-yl]pyrimidin-2-yl}-N-(2-piperidin-1-ylethyl)amine], the pIC50 was 6.00 to 7.00 at p38 kinase (setting [6]) and 5.00 to 6.00 in assay [3].
In the same order, the values of `Fc1ccc(-c2nn3cc(C(F)(F)F)ccc3c2-c2ccnc(NCCN3CCCCCC3)n2)cc1Cl` [Example 116, N-(2-azepan-1-ylethyl)-N-{4-[2-(3-chloro-4-fluorophenyl)-6-(trifluoromethyl)pyrazolo[1,5-a]pyridin-3-yl]pyrimidin-2-yl}amine] are 6.00 to 7.00 and 5.00 to 6.00.
In the case of `Fc1ccc(-c2nn3ccccc3c2-c2ccnc(NCc3ccccn3)n2)cc1` [Example 82, 4-[2-(4-Fluorophenyl)pyrazolo[1,5-a]pyridin-3-yl]-N-(2-pyridinylmethyl)-2-pyrimidinamine], the pIC50 is above 6.30 on p38 kinase (setting [4]) and above 6.30 in assay [1] (Table 8, LPS stimulation). The inhibition in vivo at 30 mg/kg in assay [2] (Table 8, LPS challenge) worked out at 87%.
